What was measured:
NS3 genotype 3a protease = target: T1, NS3 genotype 3a protease (UniProt Q81258); test: Ki determination, NS3 protease genotype 3a (fluorogenic depsipeptide substrate); assay type: biochemical, hepatitis C virus; conditions: NS3 protease domain genotype 3a, NS4A peptide
T1 construct: Purified NS3 protease domain (amino acids 1-181) of the genotype 1b and 3a virus were generated as above; fused on or other part: N-terminal hexahistidine tag with an rTEV protease cleavage site (vector p28-N6H-Tev-NS3(181)3)
T1 sequence (Q81258 1033-1663): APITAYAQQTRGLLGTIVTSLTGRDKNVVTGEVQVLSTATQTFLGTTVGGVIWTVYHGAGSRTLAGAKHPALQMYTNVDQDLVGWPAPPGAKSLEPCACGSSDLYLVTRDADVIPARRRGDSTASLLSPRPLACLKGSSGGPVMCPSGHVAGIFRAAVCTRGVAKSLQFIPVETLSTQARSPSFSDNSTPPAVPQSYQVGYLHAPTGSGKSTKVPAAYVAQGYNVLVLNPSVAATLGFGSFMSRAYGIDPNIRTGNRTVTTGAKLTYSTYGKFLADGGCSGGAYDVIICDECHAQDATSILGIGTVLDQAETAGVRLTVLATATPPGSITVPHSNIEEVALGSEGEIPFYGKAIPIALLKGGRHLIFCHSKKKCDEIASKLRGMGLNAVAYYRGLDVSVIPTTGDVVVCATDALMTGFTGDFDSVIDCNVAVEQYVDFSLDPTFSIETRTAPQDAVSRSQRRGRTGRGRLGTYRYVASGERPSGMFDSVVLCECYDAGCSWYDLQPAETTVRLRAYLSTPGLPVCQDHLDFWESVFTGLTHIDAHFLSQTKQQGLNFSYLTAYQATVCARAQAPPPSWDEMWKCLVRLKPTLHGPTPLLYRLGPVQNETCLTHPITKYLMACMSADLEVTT
Excerpt: Ki Determination for Genotypes 1b and 3a NS3 Protease.
Purified NS3 protease domain (amino acids 1-181) of the genotype 1b and 3a virus were generated as above. The internally quenched fluorogenic depsipeptide substrate Ac-DED(Edans)-EEAbuψ[COO]ASK(Dabcyl)-NH2 and a synthetic peptide containing the hydrophobic core residues of the NS4A protein cofactor ([…]; NS4A peptide) were obtained from Anaspec, Inc. (San Jose, Calif.). Other chemicals and biochemicals were of reagent grade or better and were purchased from standard suppliers.
Reactions were run at room temperature in buffer consisting of 50 mM HEPES, 40% glycerol, 0.05% Triton X-100, 10 mM DTT, and 10% DMSO. The final assay solutions contained 50 pM NS3 genotype 1b protease or 200 pM genotype 3a protease, 20 μM NS4A peptide, and 4 μM substrate (genotype 1b) or 2 μM substrate (genotype 3a). Inhibitor concentrations varied from 100 nM to 5 pM in 3-fold dilutions, and no-inhibitor controls were included.
Compound dilutions were made in DMSO at 20× final concentration. Reaction mixtures were prepared in 96-well assay plates. A solution of enzyme and NS4A peptide in assay buffer (25 μL volume with both reagents at 4× final concentration) was mixed with 45 μL assay buffer and 5 μL of either inhibitor or DMSO, and pre-incubated at room temperature for 1 hour. The reaction was started by addition of 25 μL substrate solution at 4× final concentration. Plates were mixed vigorously for 5-10 seconds and reactions were allowed to proceed for 90 minutes. Fluorescence was measured every 30 s between 90 and 120 minutes reaction time using a Tecan InfiniTe M1000 or PerkinElmer Envision multimode plate reader with an excitation wavelength of 340 nm and an emission wavelength of 490 nm.
Rates were calculated from the progress curves at steady state, in the time frame of 90-120 minutes after addition of substrate. To determine the Ki, rates were plotted as a function of inhibitor concentration, and the data were fit with equation 1 (Morrison, J. F., Biochimica et Biophysica Acta 1969, 185, 269-286) to calculate Ki^app using GraphPad Prism 5. Active fraction of enzyme was determined by active site titration with known potent inhibitors. Ki was calculated from Ki^app/(1+[[S]/Km]).

[1] = system: genotype 1a stable HCV replicon (H77) in Huh-7-derived cells; test: Stable subgenomic HCV replicon, genotype 1a, Renilla luciferase; assay type: cell-based; conditions: Hepatitis C virus, stable replicon genotype 1a, 72 h, read-out: EC50 1A RLUC
Procedure: Antiviral potency (EC50) was determined in both stable subgenomic HCV replicon cell lines and transient-transfected HCV replicon cells. The term half maximal effective concentration (EC50) refers to the concentration of a drug which induces a response halfway between the baseline and maximum after the exposure time specified below.
Stable subgenomic HCV replicons for genotype 1a, 1b, 2a, 3a, and 4a were established in Huh-7-derived cells as described by Lohmann et al (Lohmann V, Korner F, Koch J, et al Replication of subgenomic hepatitis C virus RNAs in a hepatoma cell line. Science 1999; 285:119-3). Each stable cell line contains a bicistronic HCV replicon that encodes a humanized Renilla luciferase (hRLuc) reporter gene fused to a selectable neomycin-resistance gene, followed by an EMCV IRES and the NS3-NS5B coding region of HCV. […] Luciferase activity was measured as a marker for intracellular HCV replication levels.
The genotype 1a stable replicon was derived from the H77 HCV strain and contained adaptive mutations P1496L and S2204I. The genotype 1b stable replicon was derived from the Con1 HCV strain and contained adaptive mutations E1202G, T1280I, and K1846T. […] The genotype 3a stable replicon was derived from the S52 HCV strain and contained adaptive mutations P1121 L, A1198T and S2210I (equivalent to S2204I in genotype 1). The genotype 4a stable replicon was derived from the ED43 HCV strain and contained adaptive mutations Q1691R and S2204I. All replicon cell lines were propagated in Huh-7-derived cells and maintained in Dulbecco's modified Eagle's Medium (DMEM) supplemented with 10% fetal bovine serum (FBS) and 0.5 mg/ml G418.
To perform EC50 assays, cells from each HCV replicon were dispensed into 384-well plates. Compounds were dissolved in DMSO at a concentration of 10 mM and diluted in DMSO using an automated pipetting instrument. Three-fold serially diluted compounds were directly added to the cells using an automated instrument. DMSO was used as a negative (solvent; no inhibition) control, and a combination of three HCV inhibitors including a protease inhibitor; an NS5A inhibitor and a nucleoside inhibitor was used at concentrations >100×EC50 as a positive control (100% inhibition). Seventy-two hours later, cells were lysed and Renilla luciferase activity were quantified as recommended by the manufacturer (Promega-Madison, Wis.). Non-linear regression was performed to calculate […], values.

Row | SMILES | Ki (NS3 genotype 3a protease) [nM] | EC50 [1] [nM]
1 | COc1ccc2nc3c(nc2c1)O[C@@H]1C[C@@H](C(=O)N[C@]2(C(=O)NS(=O)(=O)C4(C)CC4)C[C@H]2CC(F)F)N(C1)C(=O)[C@H](C(C)(C)C)NC(=O)O[C@@H]1C[C@@H]2C[C@@H]2[C@H]1CCCCC3(F)F [Example 20, (1aS,2aR,6S,9S,11R,23aR,23bS)-6-tert-butyl-N-[(1R,2S)-2-(2,2-difluoroethyl)-1-{[(1-methylcyclopropyl)sulfonyl]carbamoyl}cyclopropyl]-19,19-difluoro-15-methoxy-4,7-dioxo-1a,2,2a,4,5,6,7,10,11,19,20,21,22,23,23a,23b-hexadecahydro-1H,9H-8,11-methanocyclopropa[4′,5′]cyclopenta[1′,2′:18,19][1,10,3,6]dioxadiazacyclononadecino[11,12-b]quinoxaline-9-carboxamide] | 0.07 | 6
2 | CC(C)(C)[C@@H]1NC(=O)O[C@@H]2C[C@@H]3C[C@@H]3[C@H]2CCCCC(F)(F)c2nc3ccc(C#N)cc3nc2O[C@@H]2C[C@@H](C(=O)N[C@]3(C(=O)NS(=O)(=O)C4(C)CC4)C[C@H]3C(F)F)N(C2)C1=O [Example 14, (1aS,2aR,6S,9S,11R,23aR,23bS)-6-tert-butyl-15-cyano-N-[(1R,2R)-2-(difluoromethyl)-1-{[(1-methylcyclopropyl)sulfonyl]carbamoyl}cyclopropyl]-19,19-difluoro-4,7-dioxo-1a,2,2a,4,5,6,7,10,11,19,20,21,22,23,23a,23b-hexadecahydro-1H,9H-8,11-methanocyclopropa[4′,5′]cyclopenta [1′,2′:18,19][1,10,3,6]dioxadiazacyclononadecino[11,12-b]quinoxaline-9-carboxamide] | 0.01 | 1.4
3 | CC(C)(C)[C@@H]1NC(=O)O[C@@H]2C[C@@H]3C[C@@H]3[C@H]2CCCCC(F)(F)c2nc3cc(F)c(F)cc3nc2O[C@@H]2C[C@@H](C(=O)N[C@]3(C(=O)NS(=O)(=O)C4CC4)C[C@H]3C(F)F)N(C2)C1=O (racemic) [Example 15, (1aS,2aR,6S,9S,11R,23aR,23bS)-6-tert-butyl-N-[(1R,2R)-1-[(cyclopropylsulfonyl)carbamoyl]-2-(difluoromethyl)cyclopropyl]-15,16,19,19-tetrafluoro-4,7-dioxo-1a,2,2a,4,5,6,7,10,11,19,20,21,22,23,23a,23b-hexadecahydro-1H,9H-8,11-methanocyclopropa[4′,5′]cyclopenta[1′,2′:18,19][1,10,3,6]dioxadiazacyclononadecino[11,12-b]quinoxaline-9-carboxamide] | 0.05 | 3.5
4 | COc1ccc2nc3c(nc2c1)O[C@@H]1C[C@@H](C(=O)N[C@]2(C(=O)NS(=O)(=O)C4CC4)C[C@H]2C(F)F)N(C1)C(=O)[C@H](C(C)(C)C)NC(=O)O[C@@H]1C[C@@H]2C[C@@H]2[C@H]1CCCCC3(F)F (racemic) [Example 9, (1aS,2aR,6S,9S,11R,23aR,23bS)-6-tert-butyl-N-[(1R,2R)-1-[(cyclopropylsulfonyl)carbamoyl]-2-(difluoromethyl)cyclopropyl]-19,19-difluoro-15-methoxy-4,7-dioxo-1a,2,2a,4,5,6,7,10,11,19,20,21,22,23,23a,23b-hexadecahydro-1H,9H-8,11-methanocyclopropa[4′,5′]cyclopenta[1′,2′:18,19][1,10,3,6]dioxadiazacyclononadecino[11,12-b]quinoxaline-9-carboxamide] | 0.02 | 1.7
5 | CC(C)(C)[C@@H]1NC(=O)O[C@@H]2C[C@@H]3C[C@@H]3[C@H]2CC/C=C/C(F)(F)c2nc3ccc(C#N)cc3nc2O[C@@H]2C[C@@H](C(=O)N[C@]3(C(=O)NS(=O)(=O)C4(C)CC4)C[C@H]3C(F)F)N(C2)C1=O [Example 13, (1aS,2aR,6S,9S,11R,20E,23aR,23bS)-6-tert-butyl-15-cyano-N-[(1R,2R)-2-(difluoromethyl)-1-{[(1-methylcyclopropyl)sulfonyl]carbamoyl}cyclopropyl]-19,19-difluoro-4,7-dioxo-1a,2,2a,4,5,6,7,10,11,19,22,23,23a,23b-tetradecahydro-1H,9H-8,11-methanocyclopropa[4′,5′]cyclopenta[1′,2′18,19][1,10,3,6]dioxadiazacyclononadecino[11,12-b]quinoxaline-9-carboxamide] | 0.03 | 3.4
6 | CC(C)(C)[C@@H]1NC(=O)O[C@@H]2C[C@@H]3C[C@@H]3[C@H]2CCCCCc2nc3ccc(F)cc3nc2O[C@@H]2C[C@@H](C(=O)N[C@]3(C(=O)NS(=O)(=O)C4(C)CC4)C[C@H]3C(F)F)N(C2)C1=O [Example 11, (1aS,2aR,6S,9S,11R,23aR,23bS)-6-tert-butyl-N-[(1R,2R)-2-(difluoromethyl)-1-{[(1-methylcyclopropyl)sulfonyl]carbamoyl}cyclopropyl]-15-fluoro-4,7-dioxo-1a,2,2a,4,5,6,7,10,11,19,20,21,22,23,23a,23b-hexadecahydro-1H,9H-8,11-methanocyclopropa[4′,5′]cyclopenta[1′,2′:18,19][1,10,3,6]dioxadiazacyclononadecino[11,12-b]quinoxaline-9-carboxamide] | 0.09 | 1.4
7 | COc1ccc2nc3c(nc2c1)O[C@@H]1C[C@@H](C(=O)N[C@]2(C(=O)NS(=O)(=O)C4CC4)C[C@H]2C(F)F)N(C1)C(=O)[C@H](C(C)(C)C)NC(=O)O[C@H]1[C@H](CCCCC3)C[C@H]2C[C@H]21 [Example 7, (1aR,1bS,5S,8S,10R,22aR,23aR)-5-tert-butyl-N-[(1R,2R)-1-[(cyclopropylsulfonyl)carbamoyl]-2-(difluoromethyl)cyclopropyl]-14-methoxy-3,6-dioxo-1a,1b,3,4,5,6,9,10,18,19,20,21,22,22a,23,23a-hexadecahydro-1H,8H-7,10-methanocyclopropa[3′,40]cyclopenta[1′,2′:18,19][1,10,3,6]dioxadiazacyclononadecino[11,12-b]quinoxaline-8-carboxamide] | 9.5 | 95

— patent publication US9617310B2 (priority 2013, dated 2017)
